Laboratory results from article PMC3438169 (PLoS ONE, 2012).
*1 amine or outer side, *2 acyl side, *3 side chain or, on linkers, in order; H or OH if unused. Where a SMILES comes first, the peptide text is derived from it. [ ]: non-standard residue; d: D form. dAla(ψthiazole) = C[C@@H](N[*:1])c1nc(C(=O)[*:2])cs1; Trp(4-OMe) = COc1cccc2[nH]cc(C[C@H](N)C(=O)O)c12; dAbu = CC[C@@H](N)C(=O)O; Dha = C=C(N)C(=O)O; Sar = CNCC(=O)O

Key:
[1] = tested on: recombinant human mEF-G1 L693Q; experiment: Biacore binding, human mEF-G1 L693Q; settings: 10, 20, 40 µM, HBS-P+ pH 7.4, 4% DMSO
Description: (§1) GFM1 encoding the active site of EF-G1 (residues 36–751) was PCR amplified from pDONR221 constructs using primers (GGGGACAAGTTTGTACAAAAAAGCAGGCTTAATGTCTTCATCAGGGGTGATT, GGGGACCACTTTGTACAAGAAAGCTGGGTATTAGTTCTTGGCTTTTCC). P. aeroginosa fusA1 encoding full-length EF-G was PCR amplified from pET28a-PaEFG-Nhis using primers (GGGGACCACTTTGTACAAGAAAGCTGGGTATTATCAACCTTGTTTTTT, GGGGACAAGTTTGTACAAAAAAGCAGGCTTAATGGCCCGTACTACACCC). Purified PCR products were cloned into the pDONR221 vector using Gateway cloning and BP Clonase II (Invitrogen), shuttled into an E.coli protein expression vector for N-terminal tagging (Avitag-His6 vector) using LR Clonase II (Invitrogen), and verified by sequencing. Avitag-His6-hEF-G1 and Avitag-His6-PaEF-G constructs were transformed into BL21-AI cells (Invitrogen) and isolated single colonies were used to inoculate 5 ml cultures which were grown overnight at 37°C with shaking. […]. Briefly, protein was captured on column using binding buffer (50 mM Tris; pH 7.5, 300 mM NaCl, 20 mM imidazole, 10% glycerol), washed extensively with washing buffer (50 mM Tris; pH 7.5, 500 mM NaCl, 30 mM imidazole, 10% glycerol), and then eluted with elution buffer (50 mM Tris; pH 7.5, 500 mM NaCl, 250 mM imidazole, 10% glycerol). […]

[2] = tested on: recombinant human mEF-G1 S494F; experiment: Biacore binding, human mEF-G1 S494F; settings: 10, 20, 40 µM, HBS-P+ pH 7.4, 4% DMSO
Description: as §1

C=C1NC(=O)CN(C)C(=O)CNC(=O)[C@H](Cc2c[nH]c3cccc(OC)c23)NC(=O)[C@H](Cc2c[nH]c3ccccc23)NC(=O)c2csc(n2)[C@@H](C)NC(=O)[C@@H](CC)NC1=O [argyrin B] (cyclo([dAbu][dAla(ψthiazole)]W[Trp(4-OMe)]G[Sar][Dha]))
Binding to human mEF-G1 (in words) [1]: little binding detected | Binding to human mEF-G1 (in words) [2]: still bound
